By Ki is commonly meant the dissociation constant of the complex between target and ligand, obtained from inhibition or displacement. A higher Ki goes with a looser hold on the target.

These results are taken from patent US20130131075A1, “NEW COMPOUNDS” (Boehringer Ingelheim International GmbH, priority 2009, published 2013).

In the assay the target is T1, cynomolgus BK1-receptor (Macaca fascicularis, UniProt Q3BCU0).
T1 construct: expressed in transfected cells; host or cells: CHO cells (homogenate)
T1 sequence (Q3BCU0 1-352): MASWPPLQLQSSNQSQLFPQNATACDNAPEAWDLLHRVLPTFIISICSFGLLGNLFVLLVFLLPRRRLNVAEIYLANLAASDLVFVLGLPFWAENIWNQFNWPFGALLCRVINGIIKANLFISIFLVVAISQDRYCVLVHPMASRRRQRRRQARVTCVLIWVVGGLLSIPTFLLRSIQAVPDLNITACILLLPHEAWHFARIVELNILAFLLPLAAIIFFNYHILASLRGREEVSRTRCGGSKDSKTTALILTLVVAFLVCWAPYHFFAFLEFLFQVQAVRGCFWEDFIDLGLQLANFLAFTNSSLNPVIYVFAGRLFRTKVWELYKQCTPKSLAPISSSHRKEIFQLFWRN
The experiment in a line: cynoBK1-receptor binding assay. As to conditions: CHO cells expressing cynomolgus BK1-receptor, radioligand kallidine (DesArg10,Leu9). The method, boiled down: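 Ki derived by non-linear fitting of concentration-binding curves. Test compound competed against 0.5 to 5.0 nM tritiated kallidine (DesArg10,Leu9) on cynomolgus BK1-CHO cell homogenate (50 to 250 μg protein/assay) for 60-180 minutes at ambient temperature, then filtered. 1.0 μM kallidine (DesArg10) set non-specific binding.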
Compound `O=C(N[C@@]1(C(=O)NCc2ccc(Nc3ccc(Cl)cc3C(F)(F)F)cn2)CCOC1)c1cncnc1` [(228)] gave a Ki of 78 nM. In the case of `Nc1cncc(C(=O)N[C@@]2(C(=O)NCc3ncc(Nc4ccccc4C(F)(F)F)cc3Cl)CCOC2)c1` [(229)], the Ki came out at 27 nM. Regarding `COc1ncc(C(=O)N[C@@]2(C(=O)NCc3ncc(Nc4ccc(F)cc4C(F)(F)F)cc3Cl)CCOC2)cn1` [(230)], the Ki worked out at 6.1 nM. `Nc1cncc(C(=O)N[C@@]2(C(=O)NCc3ccc(Nc4ccc(F)cc4C(F)(F)F)cc3F)CCOC2)c1` [(231)] showed a Ki of 4.2 nM.

Turning to `Cc1ncc(C(=O)NC2(C(=O)NCc3ccc(Nc4ccc(F)cc4C(F)(F)F)cn3)CC2)cn1` [(232)], affinity was put at a Ki of 5.6 nM. `COc1ncc(C(=O)NC2(C(=O)NCc3ccc(Nc4ccc(F)cc4C(F)(F)F)cn3)CC2)cn1` [(233)]: the Ki was determined as 10 nM. The same measure for `O=C(NC1(C(=O)NCc2ccc(Nc3ccc(Br)cc3C(F)(F)F)cn2)CC1)c1ccc(O)nc1` [(234)]: 105 nM; for `COc1ccc(C(=O)NC2(C(=O)NCc3ccc(Nc4ccc(Br)cc4C(F)(F)F)cn3)CC2)cn1` [(235)]: 489 nM; for `Nc1cncc(C(=O)N[C@@]2(C(=O)NCc3ccc(Nc4ccccc4C(F)(F)F)cc3F)CCOC2)c1` [(236)]: 8.2 nM. On to `Nc1cncc(C(=O)N[C@@]2(C(=O)NCc3ncc(Nc4c(F)cccc4C(F)(F)F)cc3Cl)CCOC2)c1` [(237)], for which the Ki was found to be 151 nM. As for `COc1ncc(C(=O)N[C@@]2(C(=O)NCc3ncc(Nc4ccc(F)cc4C(F)(F)F)cc3F)CCOC2)cn1` [(238)], the figure is 6.6 nM; as for `O=C(NC1(C(=O)NCc2ccc(Nc3ccc(Cl)cc3C(F)(F)F)cn2)CC1)c1ccc(O)nc1` [(239)], 182 nM. Turning to `COc1ccc(C(=O)NC2(C(=O)NCc3ccc(Nc4ccc(Cl)cc4C(F)(F)F)cn3)CC2)cn1` [(240)], the Ki was determined as 506 nM. Take `CNc1ncc(C(=O)N[C@@]2(C(=O)NCc3ncc(Nc4c(F)cccc4C(F)(F)F)cc3Cl)CCOC2)cn1` [(241)]: the affinity corresponds to a Ki of 68 nM.

In the case of `O=C(N[C@@]1(C(=O)NCc2ncc(Nc3ccc(Cl)cc3C(F)(F)F)cc2F)CCOC1)c1cncnc1` [(242)], the Ki was found to be 15 nM.

`O=C(NC1(C(=O)NCc2ccc(Nc3ccc(F)cc3C(F)(F)F)cn2)CC1)c1cncc(O)c1` [(243)]: the Ki worked out at 28 nM.

Regarding `Nc1ccc(C(=O)NC2(C(=O)NCc3ccc(Nc4ccc(F)cc4C(F)(F)F)cn3)CC2)cn1` [(244)], the affinity corresponds to a Ki of 8.4 nM. `CC(C)c1ncc(C(=O)NC2(C(=O)NCc3ccc(Nc4ccc(F)cc4C(F)(F)F)cn3)CC2)cn1` [(245)] showed an inhibitory constant (Ki) of 18 nM. In turn, `O=C(NC1(C(=O)NCc2ccc(Nc3ccc(F)cc3C(F)(F)F)cn2)CC1)c1cnc(C(F)(F)F)nc1` [(246)] registered a Ki of 21 nM. In turn, `CCNc1ncc(C(=O)NC2(C(=O)NCc3ccc(Nc4ccc(F)cc4C(F)(F)F)cn3)CC2)cn1` [(247)] displayed a Ki of 3.9 nM. The same measure for `O=C(NC1(C(=O)NCc2ccc(Nc3ccc(F)cc3C(F)(F)F)cn2)CC1)c1cnc(N2CCCCC2)nc1` [(248)]: 276 nM; for `CC(=O)Nc1cncc(C(=O)NC2(C(=O)NCc3ccc(Nc4ccc(F)cc4C(F)(F)F)cn3)CC2)c1` [(249)]: 518 nM. Consider `O=C(NC1(C(=O)NCc2ccc(Nc3ccc(F)cc3C(F)(F)F)cn2)CC1)c1cnc(N2CCCC2)nc1` [(250)], for which the Ki came out at 175 nM. As for `CC(=O)Nc1ccc(C(=O)NC2(C(=O)NCc3ccc(Nc4ccc(F)cc4C(F)(F)F)cn3)CC2)cn1` [(251)], the figure is 14 nM; as for `CN(C)c1cc(C(=O)NC2(C(=O)NCc3ccc(Nc4ccc(F)cc4C(F)(F)F)cn3)CC2)cnn1` [(252)], 120 nM; as for `O=C(NC1(C(=O)NCc2ccc(Nc3ccc(F)cc3C(F)(F)F)cn2)CC1)c1ccc(Cl)nc1` [(253)], 49 nM.

As for `O=C(NC1(C(=O)NCc2ccc(Nc3ccc(F)cc3C(F)(F)F)cn2)CC1)c1ccc(C(F)(F)F)nc1` [(254)], the Ki came to 257 nM. In turn, `O=C(NC1(C(=O)NCc2ccc(Nc3ccc(F)cc3C(F)(F)F)cn2)CC1)c1cnc2cc[nH]c2c1` [(255)] returned a Ki of 15 nM. For `N#Cc1ccc(C(=O)NC2(C(=O)NCc3ccc(Nc4ccc(F)cc4C(F)(F)F)cn3)CC2)cn1` [(256)], the Ki amounted to 72 nM. Take `CC(=O)Nc1ncc(C(=O)NC2(C(=O)NCc3ccc(Nc4ccc(F)cc4C(F)(F)F)cn3)CC2)s1` [(257)]: the affinity, expressed as Ki, was 17 nM. Compound `COc1ncc(C(=O)N[C@@]2(C(=O)NCc3ncc(Nc4c(F)cccc4C(F)(F)F)cc3Cl)CCOC2)cn1` [(258)] yielded a Ki of 37 nM. Take `CNc1cncc(C(=O)N[C@@]2(C(=O)NCc3ncc(Nc4c(F)cccc4C(F)(F)F)cc3Cl)CCOC2)c1` [(259)]: the affinity corresponds to a Ki of 394 nM. `CNc1cncc(C(=O)N[C@@]2(C(=O)NCc3ncc(Nc4ccc(F)cc4C(F)(F)F)cc3F)CCOC2)c1` [(260)] yielded a Ki of 43 nM. `O=C(CC(F)(F)F)N[C@@]1(C(=O)NCc2ncc(Nc3c(F)cccc3C(F)(F)F)cc2Cl)CCOC1` [(261)] gave a Ki of 456 nM. `Nc1cc(C(=O)NC2(C(=O)NCc3ccc(Nc4ccc(F)cc4C(F)(F)F)cn3)CC2)cnn1` [(262)] displayed a Ki of 37 nM. Take `CN(C)c1ccc(C(=O)NC2(C(=O)NCc3ccc(Nc4ccc(Cl)cc4C(F)(F)F)cn3)CC2)cn1` [(263)]: the Ki was found to be 485 nM. Consider `Cn1cnc2cc(C(=O)NC3(C(=O)NCc4ccc(Nc5ccc(Cl)cc5C(F)(F)F)cn4)CC3)ccc21` [(264)], for which the affinity corresponds to a Ki of 60 nM. Turning to `Nc1nc2cc(C(=O)NC3(C(=O)NCc4ccc(Nc5ccc(Cl)cc5C(F)(F)F)cn4)CC3)ccc2[nH]1` [(265)], the Ki worked out at 75 nM. As for `O=C(NC1(C(=O)NCc2ccc(Nc3ccc(Cl)cc3C(F)(F)F)cn2)CC1)c1ccc2[nH]cnc2c1` [(266)], the figure is 78 nM; as for `Cc1ncc(C(=O)N[C@@]2(C(=O)NCc3ncc(Nc4ccc(F)cc4C(F)(F)F)cc3F)CCOC2)cn1` [(267)], 5.5 nM; as for `CN(C)c1ccc(C(=O)NC2(C(=O)NCc3ccc(Nc4ccc(Br)cc4C(F)(F)F)cn3)CC2)cn1` [(268)], 281 nM. For `CNc1cncc(C(=O)N[C@@]2(C(=O)NCc3ncc(Nc4ccc(F)cc4C(F)(F)F)cc3Cl)CCOC2)c1` [(269)], the Ki turned out to be 47 nM. On to `CNc1cncc(C(=O)NC2(C(=O)NCc3ccc(Nc4ccc(F)cc4C(F)(F)F)cn3)CC2)c1` [(270)], for which the affinity corresponds to a Ki of 51 nM. The compound `Nc1cncc(C(=O)N[C@@]2(C(=O)NCc3ncc(Nc4ccc(Cl)cc4C(F)(F)F)cc3F)CCOC2)c1` [(271)] displayed an inhibition constant (Ki) of 17 nM. As for `CNc1cncc(C(=O)NC2(C(=O)NCc3ncc(Nc4c(F)cccc4C(F)(F)F)cc3F)CC2)c1` [(272)], the figure is 35 nM. In turn, `Nc1cncc(C(=O)NC2(C(=O)NCc3ccc(Nc4ccccc4C(F)(F)F)cc3)COC2)c1` [(273)] gave a Ki of 141 nM. The compound `Cc1ncc(C(=O)N[C@@]2(C(=O)NCc3ccc(Nc4ccc(F)cc4C(F)(F)F)cc3F)CCOC2)cn1` [(274)] gave a Ki of 4 nM. With `CC(=O)Nc1cncc(C(=O)NC2(C(=O)NCc3ccc(Nc4ccc(Cl)cc4C(F)(F)F)cn3)CC2)c1` [(275)], the Ki came out at 405 nM.

`CNc1ncc(C(=O)N[C@@]2(C(=O)NCc3ncc(Nc4ccc(Cl)cc4C(F)(F)F)cc3F)CCOC2)cn1` [(276)]: the Ki was determined as 17 nM. As for `Cc1ncc(C(=O)N[C@@]2(C(=O)NCc3ncc(Nc4ccc(Cl)cc4C(F)(F)F)cc3F)CCOC2)cn1` [(277)], the figure is 10 nM; as for `O=C(N[C@@]1(C(=O)NCc2ncc(Nc3ccc(Cl)cc3C(F)(F)F)cc2Cl)CCOC1)c1cncnc1` [(278)], 16 nM; as for `Cc1ncc(C(=O)N[C@@]2(C(=O)NCc3ccc(Nc4ccccc4C(F)(F)F)cc3F)CCOC2)cn1` [(279)], 5.5 nM. In the case of `CNc1cncc(C(=O)NC2(C(=O)NCc3ccc(Nc4ccc(Cl)cc4C(F)(F)F)cn3)CC2)c1` [(280)], the affinity corresponds to a Ki of 25 nM.

Compound `CNc1ncc(C(=O)N[C@@]2(C(=O)NCc3ncc(Nc4ccc(Cl)cc4C(F)(F)F)cc3Cl)CCOC2)cn1` [(281)] had a Ki of 21 nM. The compound `Cc1ncc(C(=O)N[C@@]2(C(=O)NCc3ncc(Nc4ccc(Cl)cc4C(F)(F)F)cc3Cl)CCOC2)cn1` [(282)] came in with a Ki of 7.9 nM. As to `Cc1ncc(C(=O)NC2(C(=O)NCc3ccc(Nc4ccc(F)cc4C(F)(F)F)cc3F)CC2)cn1` [(283)], the Ki worked out at 1.3 nM. Take `Nc1cncc(C(=O)N[C@@]2(C(=O)NCc3ncc(Nc4ccc(Cl)cc4C(F)(F)F)cc3Cl)CCOC2)c1` [(285)]: the Ki stood at 27 nM.

Regarding `O=C(N[C@@]1(C(=O)NCc2ncc(Nc3ccc(Cl)cc3C(F)(F)F)cc2Cl)CCOC1)c1cncc(O)c1` [(286)], affinity was put at a Ki of 36 nM.

For the compound `O=C(N[C@@]1(C(=O)NCc2ccc(Nc3ccc(F)cc3C(F)(F)F)cc2)CCOC1)c1cncnc1` [(287)], the Ki came out at 11 nM. As for `Cc1ncc(C(=O)N[C@@]2(C(=O)NCc3ccc(Nc4ccc(F)cc4C(F)(F)F)cc3)CCOC2)cn1` [(288)], the figure is 9.1 nM; as for `CNc1ncc(C(=O)N[C@@]2(C(=O)NCc3ccc(Nc4ccc(F)cc4C(F)(F)F)cc3)CCOC2)cn1` [(289)], 21 nM; as for `Nc1cncc(C(=O)N[C@@]2(C(=O)NCc3ccc(Nc4c(F)cccc4C(F)(F)F)cc3F)CCOC2)c1` [(290)], 46 nM. Take `Cc1ncc(C(=O)N[C@@]2(C(=O)NCc3ccc(Nc4c(F)cccc4C(F)(F)F)cc3F)CCOC2)cn1` [(291)]: affinity was put at a Ki of 40 nM.
